# Test results reported in patent US8013156B2 (Exelixis, Inc., priority 2003, dated 2011).
# pIC50: −log10 of the molar value.
# Target: Tie-2 (Homo sapiens, UniProt Q02763)
# Test: Tie-2 tyrosine kinase activity assay (luciferase/luciferin ATP consumption with pEY substrate, or 33P-ATP incorporation)
# Format: biochemical
# Settings: human enzyme Tie-2
# Method: One measure of inhibition is Ki. […] The Ki for a compound is determined from the IC50 based on three assumptions. First, only one compound molecule binds to the enzyme and there is no cooperativity. […] Third, the enzymatic rate of the enzyme-inhibitor complex is zero. The rate data (i.e. compound concentration) are fitted to the equation:
# [formula] where V is the observed rate, Vmax, is the rate of the free enzyme, I0 is the inhibitor concentration, E0 is the enzyme concentration, and Kd is the dissociation constant of the enzyme-inhibitor complex.
# Tyrosine kinase activity is determined by 1) measurement of kinase-dependent ATP consumption by in the presence of a generic substrate such as […], tyrosine (pEY), by luciferase/luciferin-mediated chemiluminescence or; 2) incorporation of radioactive phosphate derived from ^33P-ATP into a generic substrate which has been adsorbed onto the well surface of polystyrene microtiter plates. Phosphorylated substrate products are quantified by scintillation spectrometry.
# Inhibition is indicated as IC50 with following key: A=IC50 less than 50 nM, B=IC50 greater than 50 nM, but less than or equal to 1000 nM, C=IC50 greater than 1000 nM, but less than 10,000 nM, D=IC50 10,000 nM or greater, and “-”=no data available. The abbreviation for human enzyme, Tie-2, is defined as tyrosine kinase with immunoglobulin and EGF repeats.
# Tie-2, sequence (Q02763 23-1124): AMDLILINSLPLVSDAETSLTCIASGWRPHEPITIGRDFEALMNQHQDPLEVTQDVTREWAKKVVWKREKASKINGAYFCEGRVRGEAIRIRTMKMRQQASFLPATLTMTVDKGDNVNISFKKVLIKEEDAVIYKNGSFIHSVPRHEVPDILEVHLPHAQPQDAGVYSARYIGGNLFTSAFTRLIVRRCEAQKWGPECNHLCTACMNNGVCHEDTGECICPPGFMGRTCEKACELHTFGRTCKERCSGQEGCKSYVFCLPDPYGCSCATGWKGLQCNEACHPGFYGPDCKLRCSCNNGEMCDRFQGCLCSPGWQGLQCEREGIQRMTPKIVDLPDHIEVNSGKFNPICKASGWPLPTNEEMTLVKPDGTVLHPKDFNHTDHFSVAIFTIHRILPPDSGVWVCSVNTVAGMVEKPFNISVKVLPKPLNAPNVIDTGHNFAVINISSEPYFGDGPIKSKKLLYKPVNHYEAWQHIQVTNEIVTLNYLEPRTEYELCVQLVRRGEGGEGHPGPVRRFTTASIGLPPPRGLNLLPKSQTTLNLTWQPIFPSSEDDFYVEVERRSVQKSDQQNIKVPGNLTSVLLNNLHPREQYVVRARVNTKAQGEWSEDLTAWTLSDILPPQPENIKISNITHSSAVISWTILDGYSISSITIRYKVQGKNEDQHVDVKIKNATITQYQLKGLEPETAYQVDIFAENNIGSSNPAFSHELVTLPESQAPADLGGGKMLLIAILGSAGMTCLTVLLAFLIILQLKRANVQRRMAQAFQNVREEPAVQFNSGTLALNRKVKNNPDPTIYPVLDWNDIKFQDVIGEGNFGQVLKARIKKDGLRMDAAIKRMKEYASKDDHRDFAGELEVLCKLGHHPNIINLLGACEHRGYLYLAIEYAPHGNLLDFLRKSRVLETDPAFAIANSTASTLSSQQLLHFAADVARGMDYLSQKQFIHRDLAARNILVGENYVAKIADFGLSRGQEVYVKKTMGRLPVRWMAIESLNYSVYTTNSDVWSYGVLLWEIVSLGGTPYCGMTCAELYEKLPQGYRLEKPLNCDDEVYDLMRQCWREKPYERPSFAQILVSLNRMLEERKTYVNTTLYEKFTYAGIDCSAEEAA
row,pIC50,Structure (SMILES)
1,> 7.30,"CCc1cc(NC(=O)N2CCN(c3ncccc3OCc3ccnc(N)n3)CC2)cc(C(F)(F)F)c1 [Example 200, 4-(3-{[(2-aminopyrimidin-4-yl)methyl]oxy}pyridin-2-yl)-N-[3-ethyl-5-(trifluoromethyl)phenyl]piperazine-1-carboxamide]"
2,> 7.30,"CC(C)c1cccc(NC(=O)N2CCN(c3nsnc3OCc3ccnc(N)n3)CC2)c1 [Example 261, 4-(4-{[(2-aminopyrimidin-4-yl)methyl]oxy}-1,2,5-thiadiazol-3-yl)-N-[3-(1-methylethyl)phenyl]piperazine-1-carboxamide]"
3,> 7.30,"Nc1nccc(COc2cccnc2N2CCN(C(=O)Nc3cccc(C4CC4)c3)CC2)n1 [Example 210, 4-(3-{[(2-aminopyrimidin-4-yl)methyl]oxy}pyridin-2-yl)-N-(3-cyclopropylphenyl)piperazine-1-carboxamide]"
4,> 7.30,"Nc1nccc(COc2nccnc2N2CCN(C(=O)Nc3cc(Cl)cc(C(F)(F)F)c3)CC2)n1 [Example 234, 4-(3-{[(2-aminopyrimidin-4-yl)methyl]oxy}pyrazin-2-yl)-N-[3-chloro-5-(trifluoromethyl)phenyl]piperazine-1-carboxamide]"
5,> 7.30,"Nc1nccc(COc2cccnc2N2CCN(C(=O)Nc3cc(F)cc(C(F)(F)F)c3)CC2)n1 [Example 196, 4-(3-{[(2-aminopyrimidin-4-yl)methyl]oxy}pyridin-2-yl)-N-[3-fluoro-5-(trifluoromethyl)phenyl]piperazine-1-carboxamide]"
6,> 7.30,"CCc1cccc(NC(=O)N2CCN(c3ncccc3OC(C)c3ccnc(N)n3)CC2)c1 (centres unmarked) [Example 245, 4-(3-{[1-(2-aminopyrimidin-4-yl)ethyl]oxy}pyridin-2-yl)-N-(3-ethylphenyl)piperazine-1-carboxamide]"

# The remaining lines, values behind:
row,Structure (SMILES),pIC50
1,"N#Cc1nccc(COc2nsnc2N2CCN(C(=O)Nc3cc(C(F)(F)F)cc(C(F)(F)F)c3)CC2)n1 [Example 134, N-[3,5-bis(trifluoromethyl)phenyl]-4-(4-{[(2-cyanopyrimidin-4-yl)methyl]oxy}-1,2,5-thiadiazol-3-yl)piperazine-1-carboxamide]",≤ 5.00
2,"CC(=O)N1CCN(c2ncccc2OCc2ccnc(NC(=O)CN3CCN(C)CC3)c2)CC1 [Example 185, N-[4-({[2-(4-acetylpiperazin-1-yl)pyridin-3-yl]oxy}methyl)pyridin-2-yl]-2-(4-methylpiperazin-1-yl)acetamide]",≤ 5.00
3,"CNc1cc(COc2nsnc2N2CCN(C(=O)Nc3cc(C(F)(F)F)cc(C(F)(F)F)c3)CC2)ccn1 [Example 112, N-[3,5-bis(trifluoromethyl)phenyl]-4-[4-({[2-(methylamino)pyridin-4-yl]methyl}oxy)-1,2,5-thiadiazol-3-yl]piperazine-1-carboxamide]",> 7.30
4,"CC(=O)Nc1nccc(COc2nsnc2N2CCN(C(=O)Nc3cc(C(F)(F)F)cc(C(F)(F)F)c3)CC2)n1 [Example 124, 4-[4-({[2-(acetylamino)pyrimidin-4-yl]methyl}oxy)-1,2,5-thiadiazol-3-yl]-N-[3,5-bis(trifluoromethyl)phenyl]piperazine-1-carboxamide]",> 7.30
5,"CCCNc1cc(COc2nsnc2N2CCNCC2)ccn1 [Example 106, 4-{[(4-piperazin-1-yl-1,2,5-thiadiazol-3-yl)oxy]methyl}-N-propylpyridin-2-amine]",≤ 5.00
6,"Nc1nccc(COc2cccnc2N2CCN(C(=O)Nc3cccc(C(F)(F)F)c3)CC2)n1 [Example 174, 4-(3-{[(2-aminopyrimidin-4-yl)methyl]oxy}pyridin-2-yl)-N-[3-(trifluoromethyl)phenyl]piperazine-1-carboxamide]",> 7.30
7,"Nc1nccc(COc2cccnc2N2CCN(C(=O)Nc3ccccc3)CC2)n1 [Example 178, 4-(3-{[(2-aminopyrimidin-4-yl)methyl]oxy}pyridin-2-yl)-N-phenylpiperazine-1-carboxamide]",5.00 to 6.00
8,Cc1cc(COc2nsnc2N2CCN(C(=O)Nc3cc(C(F)(F)F)cc(C(F)(F)F)c3)CC2)c2ccccc2n1 [Example 10],≤ 5.00
